Assay: xn = mol fraction of the nth substance listed
Conditions: 101 kPa

CCCC[n+]1ccn(C)c1.COP(=O)([O-])OC + CCCCCC(=O)O.CCCCCC(=O)[O-].CC[NH+](CC)CCO
x2 = 0
Conditions	viscosity [mPa·s]
278.15 K	3503
283.15 K	2142
288.15 K	1361.1
293.15 K	895
308.15 K	305.8
313.15 K	224.9
323.15 K	129.4
328.15 K	100.9
338.15 K	64.25
343.15 K	52.35
348.15 K	43.18
353.15 K	36.02
368.15 K	22.22
373.15 K	19.25

CC(=O)[O-].CCCC[NH2+]CCO + CCCC[n+]1ccn(C)c1.O=S(=O)([N-]S(=O)(=O)C(F)(F)F)C(F)(F)F
viscosity [mPa·s]
Conditions	x1 = 0.1012	x1 = 0.2257	x1 = 0.3002	x1 = 0.423	x1 = 0.4998	x1 = 0.6018	x1 = 0.6987	x1 = 0.8008	x1 = 0.901	x1 = 1
278.15 K	–	–	–	–	–	–	–	–	–	6138
283.15 K	–	183.1	226.7	353	481	745	1144.5	–	2806	–
288.15 K	96.2	134.7	–	248.3	331.5	499	745	–	1734.8	2230
293.15 K	74.29	101.5	121.9	179.1	234.7	344	501	765	1109.3	1412.3
298.15 K	58.45	–	92.4	132.2	170.1	243.1	346	–	–	–
303.15 K	46.77	61.09	71.45	99.7	–	176	244.7	–	495	617
308.15 K	38.01	48.63	–	76.6	95.3	130.1	177.2	251.7	343	–
313.15 K	31.32	39.3	44.89	59.83	–	98.1	–	–	–	–
318.15 K	26.13	–	36.38	47.48	57.42	75.3	–	134.2	–	212.7
323.15 K	22.05	26.72	29.87	38.23	45.61	58.7	–	100.8	130.4	155.3
328.15 K	18.81	–	24.83	31.18	36.74	–	58.7	77	–	115.3
333.15 K	16.19	19	20.86	25.75	29.98	37.29	46.37	59.7	74.8	87
338.15 K	14.06	16.27	17.7	21.49	24.74	30.3	–	47.02	58	66.7
343.15 K	12.31	–	15.16	18.12	–	24.92	30.07	37.51	–	–
348.15 K	10.85	12.23	13.09	–	17.4	20.7	24.65	30.28	36.31	40.87
353.15 K	9.63	10.72	11.4	13.24	14.79	17.37	20.42	24.73	–	–
358.15 K	8.6	9.47	–	–	–	14.71	17.08	20.41	23.84	26.29
363.15 K	7.73	8.41	8.82	–	10.96	12.57	14.42	17	19.63	–
368.15 K	6.98	7.51	7.83	8.76	9.54	10.81	12.27	–	16.31	–
373.15 K	6.33	6.75	–	–	–	9.37	10.52	12.11	13.67	–

CCCC[n+]1ccn(C)c1.COP(=O)([O-])OC + CCCCC(=O)[O-].CC[NH+](CC)CCO
x2 = 0
Conditions	viscosity [mPa·s]
278.15 K	3503
283.15 K	2142
288.15 K	1361.1
293.15 K	895
298.15 K	609
308.15 K	305.8
313.15 K	224.9
318.15 K	168.9
333.15 K	79.9
338.15 K	64.25
343.15 K	52.35
353.15 K	36.02
363.15 K	25.86

CCCCC(=O)[O-].CC[NH+](CC)CCO + CCCC[n+]1ccn(C)c1.COP(=O)([O-])OC
viscosity [mPa·s]
Conditions	x1 = 0.1018	x1 = 0.1952	x1 = 0.3029	x1 = 0.4003	x1 = 0.4973	x1 = 0.5989	x1 = 0.6984	x1 = 0.7978	x1 = 0.8868	x1 = 1
278.15 K	2088	1185.7	676	440	318.2	250.8	–	190.6	171.4	156.6
283.15 K	1327.5	786	464	309	–	180.3	156.2	137.6	123.9	113.1
288.15 K	–	536	327.1	222.5	165.5	132.6	115	101.5	91.4	83.2
293.15 K	–	376	236.3	163.8	123.3	99.4	86.4	76.3	68.8	62.4
298.15 K	416	–	174.8	123.2	93.8	–	66.1	–	52.75	47.75
303.15 K	298.4	–	–	94.6	72.7	59.21	51.52	45.65	41.15	–
308.15 K	219.3	–	101.6	73.8	57.24	–	40.78	36.17	32.59	29.31
313.15 K	164.7	115.4	–	–	45.77	–	32.76	29.07	–	23.48
318.15 K	126	–	63.2	–	37.12	–	–	23.66	21.33	19.07
323.15 K	98.1	71.4	50.96	38.46	30.5	25.23	21.99	–	17.59	15.68
328.15 K	77.7	57.48	41.66	31.79	–	–	–	16.26	14.66	13.03
333.15 K	–	46.87	–	–	21.3	17.73	15.45	13.7	–	–
338.15 K	50.75	–	28.83	22.42	–	–	13.14	11.64	10.49	9.27
343.15 K	41.81	32.29	24.35	–	–	12.94	–	9.98	8.99	7.91
348.15 K	34.84	27.23	20.77	16.43	13.36	–	9.74	8.63	7.76	6.81
353.15 K	29.34	23.18	17.87	14.23	11.63	–	8.48	7.51	6.75	5.9
358.15 K	24.95	19.9	15.5	12.43	10.19	8.56	7.44	6.58	–	–
363.15 K	–	17.23	13.54	10.92	8.99	7.56	–	5.81	5.2	4.52
368.15 K	18.52	15.03	11.92	9.66	7.98	6.72	5.83	5.15	4.61	3.99
373.15 K	16.15	13.21	10.55	–	7.12	6	5.2	4.59	4.1	–

CCCC[n+]1ccn(C)c1.COP(=O)([O-])OC + CCCC(=O)[O-].CC[NH+](CC)CCO
x2 = 0
Conditions	viscosity [mPa·s]
278.15 K	3503
283.15 K	2142
288.15 K	1361.1
293.15 K	895
303.15 K	426
308.15 K	305.8
313.15 K	224.9
323.15 K	129.4
333.15 K	79.9
338.15 K	64.25
343.15 K	52.35
353.15 K	36.02
358.15 K	30.38
363.15 K	25.86
368.15 K	22.22

CCC(=O)O.CCC(=O)[O-].CC[NH+](CC)CCO + CCCC[n+]1ccn(C)c1.COP(=O)([O-])OC
viscosity [mPa·s]
Conditions	x1 = 0.08	x1 = 0.1549	x1 = 0.2364	x1 = 0.3281	x1 = 0.4183	x1 = 0.4953	x1 = 0.6252	x1 = 0.7416	x1 = 0.8667	x1 = 1
278.15 K	–	1099.1	655	428	329	294	241.4	208.2	184.2	244
283.15 K	1248.1	726	–	297	230.3	–	–	–	131	169
288.15 K	822	494	311	211.1	165.3	147.5	–	107.1	95.3	120.7
293.15 K	559	346	223.3	–	121.5	108.6	91.7	79.5	–	88.3
298.15 K	391	248.6	164.2	114.9	91.4	81.8	69.5	–	53.8	–
303.15 K	–	183.2	–	87.6	–	62.8	53.7	46.6	–	50.6
308.15 K	206.6	137.9	94.7	68	–	49.2	42.2	36.7	–	39.4
313.15 K	155.3	105.8	73.9	–	43.7	–	33.7	29.3	26.3	31.2
318.15 K	119	82.7	58.7	43.2	35.28	31.69	–	23.81	21.38	25.1
323.15 K	92.7	65.7	–	35.21	28.91	–	22.51	19.58	17.6	20.5
328.15 K	73.5	52.95	–	29.06	23.98	21.58	18.74	–	–	16.89
333.15 K	59.07	43.24	31.98	24.27	20.13	–	15.77	13.7	–	–
338.15 K	–	35.76	–	20.49	17.07	15.33	–	–	10.47	11.89
343.15 K	39.67	29.9	22.63	17.47	14.6	–	11.5	9.98	8.98	10.12
348.15 K	33.08	–	19.32	15.03	–	11.29	–	8.63	–	8.68
353.15 K	27.89	–	16.64	13.04	–	9.81	8.67	7.52	6.75	7.5
358.15 K	23.73	18.56	14.45	11.4	–	–	–	6.59	5.91	6.52
363.15 K	20.39	16.1	12.65	10.04	8.5	7.58	6.72	–	5.21	–
368.15 K	–	–	11.15	8.9	7.55	6.73	5.98	–	4.62	5.01
373.15 K	15.41	12.4	9.89	7.94	6.75	6.01	5.34	–	4.11	–

CCCC[n+]1ccn(C)c1.O=S(=O)([N-]S(=O)(=O)C(F)(F)F)C(F)(F)F + CC(=O)[O-].CCCC[NH2+]CCO
x2 = 0
Conditions	viscosity [mPa·s]
283.15 K	109
298.15 K	51.73
303.15 K	41.8
308.15 K	34.3
313.15 K	28.55
323.15 K	20.5
328.15 K	17.64
333.15 K	15.33
338.15 K	13.43
343.15 K	11.85
348.15 K	10.53
353.15 K	9.41
358.15 K	8.46
363.15 K	7.65
368.15 K	6.95
373.15 K	6.34

CCCC[n+]1ccn(C)c1.COP(=O)([O-])OC + CC(=O)O.CC(=O)[O-].CC[NH+](CC)CCO
x2 = 0
Conditions	viscosity [mPa·s]
278.15 K	3503
288.15 K	1361.1
293.15 K	895
303.15 K	426
308.15 K	305.8
313.15 K	224.9
318.15 K	168.9
323.15 K	129.4
328.15 K	100.9
333.15 K	79.9
338.15 K	64.25
343.15 K	52.35
348.15 K	43.18
363.15 K	25.86
368.15 K	22.22
373.15 K	19.25
